{"source": "ChEMBL document CHEMBL4828739", "about": "“Study on the structure-activity relationship of dihydroartemisinin derivatives: Discovery, synthesis, and biological evaluation of dihydroartemisinin-bile acid conjugates as potential anticancer agents” (Eur J Med Chem, 2021)", "type_in_all_cases": "ADME, organism-based", "key": {"[1]": {"assay": "Clearance in Sprague-Dawley rat plasma at 5 mg/kg, iv by UPLC-MS/MS analysis"}, "[2]": {"assay": "Volume of distribution at steady state in Sprague-Dawley rat plasma at 5 mg/kg, iv by UPLC-MS/MS analysis", "conditions": "read-out: Vdss"}, "[3]": {"assay": "Half life in Sprague-Dawley rat plasma at 5 mg/kg, iv by UPLC-MS/MS analysis"}, "[4]": {"assay": "AUClast in Sprague-Dawley rat plasma at 5 mg/kg, iv by UPLC-MS/MS analysis", "parameters": "route intravenous, time 0 - last, dose 5 mg/kg"}, "[5]": {"assay": "AUC (0 to infinity) in Sprague-Dawley rat plasma at 5 mg/kg, iv by UPLC-MS/MS analysis", "parameters": "route intravenous, time infinity, dose 5 mg/kg"}, "[6]": {"assay": "MRT (0 to infinity) in Sprague-Dawley rat plasma at 5 mg/kg, iv by UPLC-MS/MS analysis"}, "[7]": {"assay": "Tmax in Sprague-Dawley rat plasma at 10 mg/kg, po by UPLC-MS/MS analysis"}, "[8]": {"assay": "Cmax in Sprague-Dawley rat plasma at 10 mg/kg, po by UPLC-MS/MS analysis", "parameters": "route oral, dose 10 mg/kg"}, "[9]": {"assay": "Half life in Sprague-Dawley rat plasma at 10 mg/kg, po by UPLC-MS/MS analysis"}, "[10]": {"assay": "AUClast in Sprague-Dawley rat plasma at 10 mg/kg, po by UPLC-MS/MS analysis", "parameters": "route oral, time 0 - last, dose 10 mg/kg"}, "[11]": {"assay": "AUC (0 to infinity) in Sprague-Dawley rat plasma at 10 mg/kg, po by UPLC-MS/MS analysis", "parameters": "time infinity, route oral, dose 10 mg/kg"}, "[12]": {"assay": "Oral bioavailability in Sprague-Dawley rat plasma at 10 mg/kg by UPLC-MS/MS analysis"}}, "data": [{"smiles": "C[C@H]1[C@@H](O[C@@H]2CC[C@@]3(C)[C@@H](C2)C[C@H](O)[C@@H]2[C@@H]3CC[C@]3(C)[C@@H]([C@H](C)CCC(=O)O)CC[C@@H]23)O[C@@H]2O[C@]3(C)CC[C@H]4[C@H](C)CC[C@@H]1[C@@]24OO3", "values": [{"measurement": "clearance", "setting": "[1]", "result": 8.2, "unit": "mL/min/kg"}, {"measurement": "Vd", "setting": "[2]", "result": 0.346, "unit": "L/kg"}, {"measurement": "half-life", "setting": "[3]", "result": 46.4, "unit": "min"}, {"measurement": "AUC(0-t)", "setting": "[4]", "result": 10200, "unit": "ng·h/mL"}, {"measurement": "AUC(0-inf)", "setting": "[5]", "result": 10200, "unit": "ng·h/mL"}, {"measurement": "MRT inf", "setting": "[6]", "result": 42.2, "unit": "min"}, {"measurement": "Tmax", "setting": "[7]", "result": 100, "unit": "min"}, {"measurement": "Cmax", "setting": "[8]", "result": 1110, "unit": "ng/mL"}, {"measurement": "half-life", "setting": "[9]", "result": 49.4, "unit": "min"}, {"measurement": "AUC(0-t)", "setting": "[10]", "result": 4190, "unit": "ng·h/mL"}, {"measurement": "AUC(0-inf)", "setting": "[11]", "result": 4430, "unit": "ng·h/mL"}, {"measurement": "bioavailability", "setting": "[12]", "result": 20.6, "unit": "%"}]}]}
